Consider 19 molecules from PubChem BioAssay AID248 (DTP/NCI, 2004).

The subject of the test is L1210 leukemia ip in BDF1 mice, survival T/C. Description: NCI In Vivo Anticancer Drug Screen. Data for tumor model L1210 Leukemia (intraperitoneal) in B6D2F1 (BDF1) mice. To be noted: higher = longer survival. The essentials:
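Ratio derived from survival: compound-dosed mice over vehicle-dosed mice, all bearing a transplantable tumor.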

Where [1] appears, read: endpoint: mean survival time, dose: 100.0 mg/kg/injection, schedule: Q04DX003 (ip), vehicle: saline.
The mark [2] stands for this setting: endpoint: mean survival time, dose: 200.0 mg/kg/injection, schedule: Q04DX003 (ip), vehicle: saline.
Where [3] appears, read: endpoint: mean survival time, dose: 400.0 mg/kg/injection, schedule: Q04DX003 (ip), vehicle: saline.
The mark [4] stands for this setting: endpoint: mean survival time, dose: 100.0 mg/kg/injection, schedule: Q01DX001 (ip), vehicle: carboxymethylcellulose (CMC).
The mark [5] stands for this setting: endpoint: mean survival time, dose: 200.0 mg/kg/injection, schedule: Q01DX001 (ip), vehicle: carboxymethylcellulose (CMC).
Setting [6] is: endpoint: mean survival time, dose: 400.0 mg/kg/injection, schedule: Q01DX001 (ip), vehicle: carboxymethylcellulose (CMC).
Where [7] appears, read: endpoint: mean survival time, dose: 100.0 mg/kg/injection, schedule: Q01DX009 (ip), vehicle: Klucel (hydroxypropylcellulose) (HPC).
[8] abbreviates: endpoint: mean survival time, dose: 100.0 mg/kg/injection, schedule: Q04DX003 (ip), vehicle: Klucel (hydroxypropylcellulose) (HPC).
[9] abbreviates: endpoint: mean survival time, dose: 200.0 mg/kg/injection, schedule: Q01DX009 (ip), vehicle: Klucel (hydroxypropylcellulose) (HPC).
[10] abbreviates: endpoint: mean survival time, dose: 200.0 mg/kg/injection, schedule: Q04DX003 (ip), vehicle: Klucel (hydroxypropylcellulose) (HPC).
The mark [11] stands for this setting: endpoint: mean survival time, dose: 400.0 mg/kg/injection, schedule: Q01DX009 (ip), vehicle: Klucel (hydroxypropylcellulose) (HPC).
The mark [12] stands for this setting: endpoint: mean survival time, dose: 400.0 mg/kg/injection, schedule: Q04DX003 (ip), vehicle: Klucel (hydroxypropylcellulose) (HPC).
Setting [13] is: endpoint: mean survival time, dose: 100.0 mg/kg/injection, schedule: Q04DX002 (ip), vehicle: Klucel (hydroxypropylcellulose) (HPC).
Where [14] appears, read: endpoint: mean survival time, dose: 200.0 mg/kg/injection, schedule: Q04DX002 (ip), vehicle: Klucel (hydroxypropylcellulose) (HPC).
[15] abbreviates: endpoint: mean survival time, dose: 400.0 mg/kg/injection, schedule: Q04DX002 (ip), vehicle: Klucel (hydroxypropylcellulose) (HPC).
The mark [16] stands for this setting: endpoint: mean survival time, dose: 100.0 mg/kg/injection, schedule: Q01DX001 (ip), vehicle: saline.
Where [17] appears, read: endpoint: mean survival time, dose: 100.0 mg/kg/injection, schedule: Q01DX001 (ip), vehicle: saline with Tween-80.
Where [18] appears, read: endpoint: mean survival time, dose: 100.0 mg/kg/injection, schedule: Q01DX009 (ip), vehicle: saline with Tween-80.
[19] abbreviates: endpoint: mean survival time, dose: 200.0 mg/kg/injection, schedule: Q01DX009 (ip), vehicle: saline with Tween-80.

SMILES strings stand for the structures. Toxic doses and inconclusive results are not listed.

For `CCOC(=O)Nc1cc(N(C)CC(O)CN(C)c2ccccc2)c([N+](=O)[O-])c(N)n1` (stereo not given), the T/C (endpoint: mean survival time, dose: 100.0 mg/kg/injection, schedule: Q01DX001 (ip), vehicle: Klucel (hydroxypropylcellulose) (HPC)) is 101 % of control; the T/C (endpoint: mean survival time, dose: 200.0 mg/kg/injection, schedule: Q01DX001 (ip), vehicle: Klucel (hydroxypropylcellulose) (HPC)) was 104 % of control; the T/C (endpoint: mean survival time, dose: 400.0 mg/kg/injection, schedule: Q01DX001 (ip), vehicle: Klucel (hydroxypropylcellulose) (HPC)) was 97 % of control.

With `Cc1cc(=O)c2cc(-c3ccccc3)ccc2[nH]1`, the T/C was 100 % of control under setting [1], 92 % of control under setting [2] and 90 % of control under setting [3].

On to `COc1ccc2nc3cc(Cl)ccc3c(Cl)c2c1`, for which the T/C is, setting by setting: (endpoint: mean survival time, dose: 50.0 mg/kg/injection, schedule: Q04DX003 (ip), vehicle: carboxymethylcellulose (CMC)) 87 % of control; under setting [4], 97 % of control; (endpoint: mean survival time, dose: 100.0 mg/kg/injection, schedule: Q04DX003 (ip), vehicle: carboxymethylcellulose (CMC)) 92 % of control; under setting [5], 90 % of control; (endpoint: mean survival time, dose: 200.0 mg/kg/injection, schedule: Q04DX003 (ip), vehicle: carboxymethylcellulose (CMC)) 91 % of control; under setting [6], 100 % of control.

On to `Clc1c(C(Cl)(Cl)Cl)nc2ccccc2c1Cl`, for which the T/C is, setting by setting: (endpoint: mean survival time, dose: 12.5 mg/kg/injection, schedule: Q01DX009 (ip), vehicle: Klucel (hydroxypropylcellulose) (HPC)) 115 % of control; (endpoint: mean survival time, dose: 25.0 mg/kg/injection, schedule: Q01DX009 (ip), vehicle: Klucel (hydroxypropylcellulose) (HPC)) 107 % of control; (endpoint: mean survival time, dose: 50.0 mg/kg/injection, schedule: Q01DX009 (ip), vehicle: Klucel (hydroxypropylcellulose) (HPC)) 86 % of control.

As to `CC(=O)Oc1ccc(C[n+]2ccccc2)cc1`, the T/C is 94 % of control (endpoint: mean survival time, dose: 12.5 mg/kg/injection, schedule: Q01DX009 (ip), vehicle: saline); 86 % of control (endpoint: mean survival time, dose: 25.0 mg/kg/injection, schedule: Q01DX009 (ip), vehicle: saline); 106 % of control (endpoint: mean survival time, dose: 25.0 mg/kg/injection, schedule: Q04DX003 (ip), vehicle: saline); 100 % of control (endpoint: mean survival time, dose: 50.0 mg/kg/injection, schedule: Q04DX003 (ip), vehicle: saline).

As for `CC[C@H]1CN2CCc3cc(OC)c(OC)cc3[C@@H]2C[C@@H]1C[C@H]1NCCc2c1[nH]c1ccc(OC)cc21`, the T/C (endpoint: mean survival time, dose: 0.5 mg/kg/injection, schedule: Q01DX009 (ip), vehicle: saline) was 103 % of control; the T/C (endpoint: mean survival time, dose: 1.0 mg/kg/injection, schedule: Q01DX009 (ip), vehicle: saline) is 105 % of control; the T/C (endpoint: mean survival time, dose: 2.0 mg/kg/injection, schedule: Q01DX005 (ip), vehicle: saline) is 113 % of control; the T/C (endpoint: mean survival time, dose: 2.0 mg/kg/injection, schedule: Q01DX009 (ip), vehicle: saline) is 107 % of control; the T/C (endpoint: mean survival time, dose: 2.0 mg/kg/injection, schedule: Q04DX003 (ip), vehicle: saline) is 115 % of control; the T/C (endpoint: mean survival time, dose: 4.0 mg/kg/injection, schedule: Q01DX005 (ip), vehicle: saline) is 117 % of control. Also, the T/C is 114 % of control (endpoint: mean survival time, dose: 4.0 mg/kg/injection, schedule: Q01DX009 (ip), vehicle: saline); 123 % of control (endpoint: mean survival time, dose: 4.0 mg/kg/injection, schedule: Q04DX003 (ip), vehicle: saline); 109 % of control (endpoint: mean survival time, dose: 8.0 mg/kg/injection, schedule: Q04DX003 (ip), vehicle: saline); 117 % of control (endpoint: mean survival time, dose: 16.0 mg/kg/injection, schedule: Q01DX009 (ip), vehicle: saline); 124 % of control (endpoint: mean survival time, dose: 16.0 mg/kg/injection, schedule: Q04DX003 (ip), vehicle: saline); 152 % of control (endpoint: mean survival time, dose: 32.0 mg/kg/injection, schedule: Q04DX003 (ip), vehicle: saline). In addition, the T/C is 101 % of control (endpoint: median survival time, dose: 4.0 mg/kg/injection, schedule: Q04DX003 (ip), vehicle: saline + alcohol); 104 % of control (endpoint: median survival time, dose: 8.0 mg/kg/injection, schedule: Q04DX003 (ip), vehicle: saline + alcohol); 117 % of control (endpoint: median survival time, dose: 16.0 mg/kg/injection, schedule: Q04DX003 (ip), vehicle: saline + alcohol); 86 % of control (endpoint: median survival time, dose: 64.0 mg/kg/injection, schedule: Q04DX003 (ip), vehicle: saline + alcohol).

In the case of `Cc1[nH]c(N)nc(=S)c1CCC(=O)O`, the T/C by setting is: under setting [7], 96 % of control; under setting [8], 98 % of control; under setting [9], 96 % of control; under setting [10], 93 % of control; under setting [11], 98 % of control; under setting [12], 90 % of control.

Turning to `Cc1cccc(C)c1NC(=O)Nc1ccc(Cl)c(Cl)c1`, the T/C reads like this: under setting [7], 97 % of control; under setting [8], 95 % of control; under setting [9], 94 % of control; under setting [10], 86 % of control; under setting [11], 94 % of control; under setting [12], 91 % of control.

In the case of `C/C(=N\N=C(/C)c1ccccc1O)c1ccccc1O`, the T/C was 96 % of control (endpoint: mean survival time, dose: 100.0 mg/kg/injection, schedule: Q04DX002 (ip), vehicle: gum acacia); 93 % of control (endpoint: mean survival time, dose: 200.0 mg/kg/injection, schedule: Q04DX002 (ip), vehicle: gum acacia); 101 % of control (endpoint: mean survival time, dose: 400.0 mg/kg/injection, schedule: Q04DX002 (ip), vehicle: gum acacia).

For the molecule `O=C(O)c1ccccc1C(=O)N1CCCC1`, the T/C by setting is: under setting [13], 96 % of control; under setting [14], 86 % of control; under setting [15], 93 % of control.

With `COc1ccc(C(=O)C(C)C(C)OC(=O)c2ccccc2C(=O)O)cc1` (stereo not given), the T/C under setting [16] was 96 % of control; the T/C (endpoint: mean survival time, dose: 200.0 mg/kg/injection, schedule: Q01DX001 (ip), vehicle: saline) is 98 % of control; the T/C (endpoint: mean survival time, dose: 400.0 mg/kg/injection, schedule: Q01DX001 (ip), vehicle: saline) was 93 % of control.

On to `O=C(O)c1cc(Br)c(OCc2ccccc2)c(Br)c1`, for which the T/C is 101 % of control under setting [17]; 104 % of control (endpoint: mean survival time, dose: 200.0 mg/kg/injection, schedule: Q01DX001 (ip), vehicle: saline with Tween-80); 104 % of control (endpoint: mean survival time, dose: 400.0 mg/kg/injection, schedule: Q01DX001 (ip), vehicle: saline with Tween-80).

Regarding `C=CC[P+](CCCC)(CCCC)CCCC`, the T/C is, setting by setting: (endpoint: mean survival time, dose: 6.25 mg/kg/injection, schedule: Q04DX003 (ip), vehicle: saline) 102 % of control; (endpoint: mean survival time, dose: 12.5 mg/kg/injection, schedule: Q04DX003 (ip), vehicle: saline) 91 % of control.

For the molecule `CC1(C)C2(c3ccccc3)C3C=CC3C12c1ccccc1` (stereo not given), the T/C is 109 % of control under setting [13], 112 % of control under setting [14] and 102 % of control under setting [15].

For `Cc1ccc2c(C)cc(=O)[nH]c2c1`, the T/C was 102 % of control under setting [4]; 102 % of control under setting [18]; 91 % of control under setting [5]; 101 % of control under setting [19]; 105 % of control under setting [6]; 106 % of control (endpoint: mean survival time, dose: 400.0 mg/kg/injection, schedule: Q01DX009 (ip), vehicle: saline with Tween-80).

Turning to `NC(=S)NCCO`, the T/C reads like this: under setting [1], 105 % of control; under setting [2], 98 % of control; under setting [3], 100 % of control.

Take `CC1=C(C)C(=O)C(SC2CC(=O)OC2=O)=C(C)C1=O` (stereo not given): the T/C under setting [17] is 88 % of control.

As for `CCCCC[As](=O)(O)CCCCC`, the T/C is 104 % of control (endpoint: mean survival time, dose: 5.0 mg/kg/injection, schedule: Q01DX001 (ip), vehicle: saline); 106 % of control (endpoint: mean survival time, dose: 10.0 mg/kg/injection, schedule: Q01DX001 (ip), vehicle: saline); 115 % of control (endpoint: mean survival time, dose: 40.0 mg/kg/injection, schedule: Q01DX001 (ip), vehicle: saline); 94 % of control under setting [16].

As to `C=CSc1ccccc1`, the T/C runs as follows: under setting [18], 105 % of control; under setting [19], 93 % of control.
